Measured values: patent publication US8193362B2 (Syngenta Crop Protection LLC, priority 2008, dated 2012)

Experiments:
Type in all cases: in vivo
[1] = system: Heliothis virescens (Tobacco Budworm); assay: Comparative Heliothis virescens egg test in petri dishes on artificial diet; conditions: 144 h, 6 days incubation, read-out: percentage of dead larvae; for pest or weed control at 0.8 ppm: concentration 0.8 ppm; for pest or weed control at 1.5 ppm: concentration 1.5 ppm; for pest or weed control at 3 ppm: concentration 3 ppm; for pest or weed control at 6 ppm: concentration 6 ppm
Experimental: This Example illustrates the pesticidal/insecticidal properties of compounds of formula (I) compared to Comparative Compound A and Comparative Compound B. Comparative Compound A and Comparative Compound B were disclosed in WO 2006/003494.
(§1) Heliothis virescens (Tobacco Budworm):
Fresh eggs (0-24 h old) on filterpaper were placed in petri dishes on top of a layer of artificial diet and treated with diluted test solutions by pipetting. After an incubation period of 6 days, samples were checked for larval mortality and growth regulation. The percentage of dead larvae was assessed.

[2] = system: Plutella xylostella (Diamond Back Moth); assay: Plutella xylostella L2 larvae test on artificial diet in 24-well microtiter plate; conditions: 144 h, 200 ppm (concentration in well 18 ppm), 6 days, larval mortality, growth regulation
Experimental: Plutella xylostella (Diamond Back Moth):
(§2) A 24-well microtiter plate (MTP) with artificial diet was treated with test solutions at an application rate of 200 ppm (concentration in well 18 ppm) by pipetting. After drying, the MTP's were infested with L2 larvae (7-12 per well). After an incubation period of 6 days, samples were checked for larval mortality and growth regulation.

[3] = system: Spodoptera littoralis (Egyptian Cotton Leafworm); assay: Spodoptera littoralis cotton leaf disc spray test; conditions: foliar, 72 h, 200 ppm spray on cotton leaf discs, L1 larvae, mortality, feeding behavior, growth regulation 3 DAT
Text: Spodoptera littoralis (Egyptian Cotton Leafworm)
Cotton leaf discs were placed on agar in a 24-well microtiter plate and sprayed with test solutions at an application rate of 200 ppm. After drying, the leaf discs were infested with 5 L1 larvae. The samples were checked for mortality, feeding behavior, and growth regulation 3 days after treatment (DAT).

[4] = system: Heliothis virescens (Tobacco Budworm); assay: Heliothis virescens egg test on artificial diet in 24-well microtiter plate; conditions: 96 h, 200 ppm (concentration in well 18 ppm), eggs 0-24 h old, 4 days, egg mortality, larval mortality, growth regulation
Experimental: as §1
Eggs (0-24 h old) were placed in 24-well microtiter plate on artificial diet and treated with test solutions at an application rate of 200 ppm (concentration in well 18 ppm) by pipetting. After an incubation period of 4 days, samples were checked for egg mortality, larval mortality and growth regulation.

[5] = system: Diabrotica balteata (Corn Root Worm); assay: Diabrotica balteata L2 larvae test on artificial diet in 24-well microtiter plate; conditions: 120 h, 200 ppm (concentration in well 18 ppm), 5 days, larval mortality, growth regulation
Experimental: Diabrotica balteata (Corn Root Worm):
as §2, with “with” for “with L2”, “(L2) (6-10” for “(7-12”, “5” for “6”, “mortality,” for “mortality”

`O=C(Nc1cc(F)c(Br)nc1C1CCN(C/C=C/c2ccc(Cl)cc2)CC1)c1ccnc(Cl)c1` [Compound D3, N-{6-bromo-1′-[(E)-3-(4-chloro-phenyl)-allyl]-5-fluoro-1′,2′,3′,4′,5′,6′-hexahydro-[2,4]bipyridinyl-3-yl}-2-chloro-isonicotinamide] was tested, and the pest or weed control at 0.8 ppm [1] was 100%, the pest or weed control at 1.5 ppm [1] was 100% and the pest or weed control at 3 ppm [1] was 100%. For the same compound, the pest or weed control at 6 ppm [1] was 100%, the pest or weed control at 200 ppm [2] was ≥ 80% and the pest or weed control at 200 ppm [3] was ≥ 80%. The pest or weed control at 200 ppm [4] was ≥ 80% and the pest or weed control at 200 ppm [5] was ≥ 80%.

`O=C(Nc1cc(C(F)(F)F)c(Br)nc1C1CCN(C/C=C/c2ccc(Cl)cc2)CC1)c1ccnc(Cl)c1` [Compound G1, 2-chloro-N-{6-bromo-1′-[(E)-3-(4-chloro-phenyl)-allyl]-5-trifluoromethyl-1′,2′,3′,4′,5′,6′-hexahydro-[2,4′]bipyridinyl-3-yl}-isonicotinamide] showed a pest or weed control at 0.8 ppm [1] of 100%, a pest or weed control at 1.5 ppm [1] of 100% and a pest or weed control at 3 ppm [1] of 100%. The pest or weed control at 6 ppm [1] was 100%, the pest or weed control at 200 ppm [2] was ≥ 80% and the pest or weed control at 200 ppm [3] was ≥ 80%. The pest or weed control at 200 ppm [4] was ≥ 80% and the pest or weed control at 200 ppm [5] was ≥ 80%.

Work on `O=C(Nc1cc(Cl)c(Br)nc1C1CCN(C/C=C/c2ccc(Cl)cc2)CC1)c1ccnc(Cl)c1` [Compound E7, N-{6-bromo-1′-[(E)-3-(4-chloro-phenyl)-allyl]-5-chloro-1′,2′,3′,4′,5′,6′-hexahydro-[2,4′]bipyridinyl-3-yl}-2-chloro-isonicotinamide] yielded a pest or weed control at 0.8 ppm [1] of 100%, a pest or weed control at 1.5 ppm [1] of 100% and a pest or weed control at 3 ppm [1] of 100%. For the same compound, the pest or weed control at 6 ppm [1] was 100%, the pest or weed control at 200 ppm [2] was ≥ 80% and the pest or weed control at 200 ppm [3] was ≥ 80%. The pest or weed control at 200 ppm [4] was ≥ 80% and the pest or weed control at 200 ppm [5] was ≥ 80%.
